# Test results published in US20080287486A1, “Prokinetic agent for bowel preparation” (Theravance, Inc., priority 2007, published 2008).
# Test system: healthy subjects
# Experiment: Measurement of onset of bowel movement in healthy subjects (stool diary card, rising single doses)
# Assay type: in vivo, human
# Conditions: for Mean Number of Bowel Movements / Median Time to First Bowel Movement: first 24 hour post dosing period; for Mean Number of Bowel Movements: standard deviation in parentheses; for Median Time to First Bowel Movement: gelatin capsules; for average Bristol score (stool consistency, 1 hard pellets to 7 liquid): placebo 3.2 (0.7)
# Method: Subjects were monitored for safety and evidence of prokinetic effects using a stool diary card. Time and consistency (Bristol score) of each bowel movement were recorded.
compound,measurement,setting,value
"CC(C)n1c(=O)c(C(=O)N[C@H]2C[C@H]3CC[C@@H](C2)N3C[C@@H](O)CN(C)S(C)(=O)=O)cc2ccccc21.Cl [prokinetic agent, 1-isopropyl-2-oxo-1,2-dihydroquinoline-3-carboxylic acid {(1S,3R,5R)-8-[(R)-2-hydroxy-3-(methanesulfonyl-methyl-amino)propyl]-8-aza-bicyclo[3.2.1]oct-3-yl}amide hydrochloride]",Mean Number of Bowel Movements,10 mg dose,2.1 (1.2)
same,Median Time to First Bowel Movement,10 mg dose,1.6 h
same,Mean Number of Bowel Movements,20 mg dose,2.0 (1.5)
same,Median Time to First Bowel Movement,20 mg dose,1.0 h
same,Mean Number of Bowel Movements,30 mg dose,3.6 (2.4)
same,Median Time to First Bowel Movement,30 mg dose,1.1 h
same,Mean Number of Bowel Movements,50 mg dose,5.9 (3.9)
same,Median Time to First Bowel Movement,50 mg dose,1.1 h
same,"average Bristol score (stool consistency, 1 hard pellets to 7 liquid)",50 mg dose,5.6 (0.9)
same,Mean Number of Bowel Movements,70 mg dose,6.0 (3.0)
same,Median Time to First Bowel Movement,70 mg dose,0.9 h
same,"average Bristol score (stool consistency, 1 hard pellets to 7 liquid)",plateau at 20-70 mg,5.4-6.0
same,time at which the effect dissipated post dosing,post dosing,24 to 48 h
